# Key:
# [1] = Initial trials: detected range of plasma vitamin E metabolites (LC-MS); assay type: in vivo, horse
# Description: (§1) Analytes were simultaneously quantified via ultra-performance liquid chromatography-tandem mass spectrometry (LC-MS). LC-MS analysis was carried out using a Bruker EVOQ LC-TQ Mass Spectrometer coupled with a Bruker Advance HPLC system (Bruker Corp, Freemont, Calif., USA). Mass spectral data for α- and γ-tocopherols and α- and γ-tocotrienols were acquired in the positive ion electrospray ionization (ESI) mode with the following retention times (RT) and scan events: γ-tocotrienol—RT 11.65 min, MRM 411.0>151.0 (CE 19.0V), α-tocotrienol—RT 12.0 min, MRM 425.1>165.1 (CE 20.0V), γ-tocopherol—RT 13.3 min, MRM 417.2>151.0 (CE 25.0V), 5-methyl-D3,7-methyl-D3 (TD6)—RT 13.8 min, MRM 437.4>171.0 (CE 27.0V), and α-tocopherol—RT 13.8 min, MRM 431.2>165.0 (CE 25.0V). Mass spectral data for α- and γ-CEHC and α-CMBHC were acquired in the negative ion ESI mode with the following retention times (RT) and scan events: α-CMBHC—RT 7.45 min, MRM 319.1>150.1 (CE 22.0V), α-CEHC—RT 5.70 min, MRM 277.0>233.1 (CE 14.0V), and γ-CEHC—RT 5.30 min, MRM 263.1>219.1 (CE13.0V). Quantification was carried out using a 10-point calibration curve covering the range from 0.1 ng/mL to 5,000 ng/mL and linear regression. Each level of calibration standard contained the internal standard TD6 at 100 ng/mL and CUDA at 2 ng/mL, matching their final concentrations in the analysis samples.
# The limit of detection (ng/mL) and detected range (ng/mL), respectively, for each plasma vitamin E metabolite measured in these initial trials were as follows: α-TOH (0.1; 500-1000), γ-TOH (0.2; 10-15), α-tocotrienol (0.2; 0.2-0.6), γ-tocotrienol (0.2; 5-10), α-CMBHC (<0.05; 0.1-0.4), γ-CEHC (<0.05; 0.2-0.6), and α-CEHC (<0.05; 0.1-0.2).
# [2] = Reference values of tocopherols, tocotrienols and metabolites in healthy grazing Thoroughbred horses (LC-MS); assay type: in vivo, horse
# Description: (§2) In particular, the levels of a panel of tocopherols and tocopherol metabolites were assessed by liquid chromatography-mass spectrometry (LC-MS) in samples obtained from eNAD affected horses and matched healthy controls. Reference ranges of α-TOH, γ-TOH, α-TOT, γ-TOT, α-CEHC, γ-CEHC, and α-CMBHC were determined from serum, plasma and urine samples obtained from 16 healthy adult Thoroughbred horses on pasture. Next a supplementation trial was performed employing samples from eNAD-affected horses and neurologically normal age and sex-matched controls. Levels were assessed at baseline and after administration of bioavailable RRR-alpha-tocopherol according to the sample collection schedule described (see e.g., FIG. 2).
# as §1
# [3] = Supplementation trial: serum levels in eNAD-affected and control horses at baseline and after bioavailable RRR-alpha-tocopherol (LC-MS); assay type: in vivo, horse
# Description: This example describes investigations into the role of metabolism of α-TOH in horses affected with eNAD/EDM. Accordingly, the rate of α-TOH and γ-TOH metabolism was determined through the measurement of CEHCs in healthy and eNAD-affected horses following α-TOH supplementation.
# as §2, §1
# Simultaneous quantification of α-TOH, γ-TOH, α-tocotrienol, γ-tocotrienol, α-CEHC, γ-CEHC, and α-CMBHC has not been previously performed in the horse. Data was Log-transformed. Correspondence between sample types (e.g., plasma vs. serum) was evaluated and statistical testing by Mixed-model ANOVA was performed (fixed variables=disease, time; randomized variable=horse; 2-way interactions; p<0.05).
# [4] = earlier study; cited from earlier work
# [5] = serum, healthy grazing TBs, tocotrienols
molecule,measurement,setting,value
"Cc1c(C)c2c(c(C)c1O)CCC(C)(CCC(=O)O)O2 (stereo not drawn) [α-CEHC, alpha-carboxyethyl-hydroxychroman]",detected range of plasma vitamin E metabolite,[1]; in vivo,0.1 to 0.2 ng/mL
same,mean value for healthy grazing TBs,[2]; in vivo,0.33±0.12
same,median value for healthy grazing TBs,[2]; in vivo,0.31
same,range of values for healthy grazing TBs,[2]; in vivo,0.18-0.67
"Cc1c(C)c2c(c(C)c1O)CCC(C)(CCCC(C)C(=O)O)O2 (stereo not drawn) [α-CMBHC, 2-(4-Carboxy-4-methylbutyl)-6-hydroxy-2,5,7,8-tetramethylchroman]","Serum α-CMBHC (median, range)","[3]; horse, in vivo, 56 day",0.32 (0.12-0.40) ng/mL
same,concentration at 56 day,"[3]; horse, in vivo, Serum α-CMBHC (median, range)",0.28 ng/mL
same,detected range of plasma vitamin E metabolite,"[1]; horse, in vivo",0.1 to 0.4 ng/mL
same,mean value for healthy grazing TBs,"[2]; Thoroughbred, horse, in vivo",0.72±0.37
same,median value for healthy grazing TBs,"[2]; Thoroughbred, horse, in vivo",0.6
same,range of values for healthy grazing TBs,"[2]; Thoroughbred, horse, in vivo",0.32-1.71
"Cc1c(C)c2c(c(C)c1O)CC[C@@](C)(CCC[C@H](C)CCC[C@H](C)CCCC(C)C)O2 [α-TOH, alpha-tocopherol, reference compound]",rate of α-TOH metabolism in eNAD horses vs control horses,[3]; in vivo,faster rates than control horses
same,detected range of plasma vitamin E metabolite,[1]; in vivo,500 to 1000 ng/mL
same,"α-TOH absorption indices, eNAD-affected vs unaffected horses",[4],no significant differences
same,mean value for healthy grazing TBs,[2]; in vivo,4292±892
same,median value for healthy grazing TBs,[2]; in vivo,4348
same,range of values for healthy grazing TBs,[2]; in vivo,2855-6299
"Cc1c(O)cc2c(c1C)OC(C)(CCC(=O)O)CC2 (stereo not shown) [γ-CEHC, gamma-carboxyethyl-hydroxychroman]",detected range of plasma vitamin E metabolite,[1]; in vivo,0.2 to 0.6 ng/mL
same,mean value for healthy grazing TBs,[2]; in vivo,0.43±0.18
same,median value for healthy grazing TBs,[2]; in vivo,0.38
same,range of values for healthy grazing TBs,[2]; in vivo,0.26-0.89
"Cc1c(O)cc2c(c1C)O[C@](C)(CCC[C@H](C)CCC[C@H](C)CCCC(C)C)CC2 [γ-TOH, gamma-tocopherol]",detected range of plasma vitamin E metabolite,"[1]; horse, in vivo",10 to 15 ng/mL
same,mean value for healthy grazing TBs,"[2]; Thoroughbred, horse, in vivo",27.1±9.82
same,median value for healthy grazing TBs,"[2]; Thoroughbred, horse, in vivo",25.6
same,range of values for healthy grazing TBs,"[2]; Thoroughbred, horse, in vivo",10.3-44.7
"CC(C)=CCC/C(C)=C/CC/C(C)=C/CC[C@]1(C)CCc2cc(O)c(C)c(C)c2O1 [γ-TOT, gamma-tocotrienol]",difference in serum tocotrienol levels with time or disease,"[3]; serum, eNAD vs control horses, over time",no significant difference
same,detected range of plasma vitamin E metabolite,"[1]; plasma, initial trials",5 to 10 ng/mL
same,mean value in healthy grazing TBs,[2]; [5],0.13 ± 0.36 ng/mL
same,median value in healthy grazing TBs,[2]; [5],0.02 ng/mL
same,range of values in healthy grazing TBs,[2]; [5],0.02 to 1.79 ng/mL
alpha-tocotrienol [α-TOT],difference in serum tocotrienol levels with time or disease,[3]; in vivo,no significant difference
same,detected range of plasma vitamin E metabolite,[1]; in vivo,0.2 to 0.6 ng/mL
same,mean value in healthy grazing TBs,[2]; in vivo,0.31 ± 0.36 ng/mL
same,median value in healthy grazing TBs,[2]; in vivo,0.15 ng/mL
same,range of values in healthy grazing TBs,[2]; in vivo,0.004 to 1 ng/mL

# Reference: patent publication US20210270852A1, “Methods of Detecting Neuroaxonal Dystrophy Disorders Associated with Vitamin E Deficiency and Uses Thereof” (The Regents of the University of California, priority 2018, published 2021)
